Measurements as given in paper PMC3265452 (PLoS Neglected Tropical Diseases, 2012).
Where a name gives a salt, the structure may show the parent alone. Read-outs that look alike come from different tables or passages of the source. Blank lines part the entries; values can stand above or below the compound they belong to.

Columns and labels:
AaDOP1 [1] = target: T1, AaDOP1 (Aedes aegypti, UniProt H6D5H1); details: single dose of dopamine 10 µM, n = 3
AaDOP2 [2] = target: T2, AaDOP2 (Aedes aegypti, UniProt H6D5H2); details: single dose of dopamine 10 µM, n = 3
T2 sequence (H6D5H2 1-476): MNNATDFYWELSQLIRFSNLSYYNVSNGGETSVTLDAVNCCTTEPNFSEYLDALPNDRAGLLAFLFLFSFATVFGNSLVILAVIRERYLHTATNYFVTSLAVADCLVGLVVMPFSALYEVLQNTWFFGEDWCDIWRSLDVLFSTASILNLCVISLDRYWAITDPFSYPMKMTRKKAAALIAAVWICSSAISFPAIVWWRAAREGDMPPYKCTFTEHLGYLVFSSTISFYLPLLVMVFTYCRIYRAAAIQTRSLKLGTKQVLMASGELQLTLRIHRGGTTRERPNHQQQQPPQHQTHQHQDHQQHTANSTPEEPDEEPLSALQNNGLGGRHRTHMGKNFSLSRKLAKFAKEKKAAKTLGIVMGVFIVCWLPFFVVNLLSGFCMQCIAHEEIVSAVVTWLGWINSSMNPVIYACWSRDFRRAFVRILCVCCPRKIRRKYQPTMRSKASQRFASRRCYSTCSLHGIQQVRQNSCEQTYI

AaDOP1 [3] = target: T1, AaDOP1; experiment: CRELuc reporter dose-response in HEK293 cells stably expressing AaDOP1; type: cell-based
[4] = tested on: Ae. aegypti L4-stage larvae (Liverpool strain); experiment: whole plant or invertebrate; type: in vivo, Aedes aegypti; details: for average mortality: single dose-point 400 µM, 24 hours post-treatment
Experimental: Single dose-point and dose response in vivo mosquito bioassays were used to assess the toxicity of selected AaDOP2 receptor antagonists identified in the chemical screen. Larvae of Ae. aegypti (Liverpool strain) were reared under standard laboratory conditions on a 12 hr day/night cycle at 75% RH and 28°C, and bioassays were conducted at room temperature (22–24°C). Larvae were transferred from standard rearing trays into six-well tissue culture plates (Corning, Inc. Corning, NY) using a small plastic pipette. Ten L4-stage larvae were included per well, each containing five ml of de-ionized water and the assigned drug concentration. Controls were conducted similarly but lacked a drug treatment. Bioassays employed a double-blind experimental design, and percent mortality was scored 24 hr following administration of drugs. Single dose-point assays were conducted using 400 µM drug and included three biological replicates each consisting of 50–100 larvae. Dose-response assays were conducted using five doses (400, 200, 100, 50, and 25 µM) of the compounds suspended in water, with water alone as a control. Five technical replicates, each including 10 larvae, were performed per dose, and the assay was repeated three times.

AaDOP2 [5] = target: T2, AaDOP2; experiment: cell-based
AaDOP2 [6] = target: T2, AaDOP2
AaDOP2 [7] = target: T2, AaDOP2; experiment: AaDOP2 antagonist screen of the LOPAC1280 library (HEK-CRELuc-Aadop2 cells, luminescence); type: cell-based; details: for inhibition at 10 µM: read-out: % of the SCH23390 effect (percent inhibition of receptor response relative to the SCH23390 control)
[8] = target: T3, human D1 dopamine receptor (hD1) (Homo sapiens, UniProt P21728); experiment: cAMP accumulation secondary assay, hD1-expressing cells; type: cell-based
T3 construct: expressed in transfected cells
T3 sequence (P21728 whole entry): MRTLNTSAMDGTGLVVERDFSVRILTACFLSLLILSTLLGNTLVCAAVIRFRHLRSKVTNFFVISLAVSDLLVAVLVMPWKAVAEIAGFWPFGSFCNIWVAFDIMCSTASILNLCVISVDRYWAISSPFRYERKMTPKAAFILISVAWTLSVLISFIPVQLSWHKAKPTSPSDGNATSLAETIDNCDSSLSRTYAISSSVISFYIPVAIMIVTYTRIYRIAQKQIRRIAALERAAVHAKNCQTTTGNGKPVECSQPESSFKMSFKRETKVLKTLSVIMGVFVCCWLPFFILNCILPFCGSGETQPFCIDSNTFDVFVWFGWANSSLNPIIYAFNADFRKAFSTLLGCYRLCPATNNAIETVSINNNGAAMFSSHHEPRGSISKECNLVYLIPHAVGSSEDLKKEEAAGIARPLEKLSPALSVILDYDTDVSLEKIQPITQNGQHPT

AaDOP2 [9] = target: T2, AaDOP2; details: for Relative fold selectivity for AaDOP2 vs. hD1: from IC50 values at AaDOP2 and hD1
AaDOP2 [10] = target: T2, AaDOP2; experiment: cell-based; remark: listed apart in the source
[11] = 10 µM SCH23390 in the presence of 1 µM dopamine

T1 sequence (H6D5H1 entry or part of it): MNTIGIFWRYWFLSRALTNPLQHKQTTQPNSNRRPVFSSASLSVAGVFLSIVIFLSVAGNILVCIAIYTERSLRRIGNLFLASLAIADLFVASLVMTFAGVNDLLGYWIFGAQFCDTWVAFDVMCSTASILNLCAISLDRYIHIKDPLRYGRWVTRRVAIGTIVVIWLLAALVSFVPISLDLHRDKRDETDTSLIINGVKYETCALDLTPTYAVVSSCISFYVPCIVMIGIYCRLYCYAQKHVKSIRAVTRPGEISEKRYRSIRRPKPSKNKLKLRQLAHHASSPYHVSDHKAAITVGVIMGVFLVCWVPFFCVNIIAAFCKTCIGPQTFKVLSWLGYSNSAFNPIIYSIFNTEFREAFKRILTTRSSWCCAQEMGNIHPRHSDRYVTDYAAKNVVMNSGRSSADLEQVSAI

Structure (SMILES): NCCc1ccc(O)c(O)c1 [Compound 603, Dopamine hydrochloride]
increase of intracellular cAMP (AaDOP1 [1]): 2.7±0.6 fold
increase of intracellular cAMP (AaDOP2 [2]): 48±14 fold
EC50 (AaDOP1 [3]): 0.0031 ± 0.0011 µM

Structure (SMILES): CN(C)CCC=C1c2ccccc2COc2ccccc21 [Compound 386, Doxepin hydrochloride]
average mortality [4]: 72%

IC50 (AaDOP2 [5]): 1.6 ± 0.073 µM
inhibition of dopamine-mediated stimulation of AaDOP2 (AaDOP2 [6]; [11]): robustly inhibited
inhibition at 10 µM (AaDOP2 [7]): 83%
inhibition of dopamine-mediated stimulation of AaDOP1 (AaDOP1 [3]; [11]): robustly inhibited
Structure (SMILES): CN1CCc2cc(Cl)c(O)cc2[C@@H](c2ccccc2)C1 [Compound 446, R(+)-SCH-23390 hydrochloride]

Structure (SMILES): Oc1cc2c(c(Cl)c1O)CCNCC2c1ccccc1 (stereo not drawn) [SKF 81297]
EC50 (AaDOP2 [6]; read-out: EC50 values AaDOP2, HEK293 cells stably expressing CRELuc reporter and AaDOP2, ≥10 µM considered lacking intrinsic activity): ≥ 10 µM
EC50 (AaDOP1 [3]; HEK293 cells stably expressing CRELuc reporter and AaDOP1, read-out: EC50 values AaDOP1): 0.024 ± 0.007 µM

IC50 (AaDOP2 [5]): ≥ 10 µM
Compound effect (percent receptor signaling in presence of test compound, relative lux units relative to the SCH23390 control) (AaDOP2 [7]): 11
inhibition at 10 µM (AaDOP2 [7]): 89%
Structure (SMILES): Oc1ccc(/C=C/c2cc(O)cc(O)c2)cc1 [Compound 1048, Resveratrol, reference compound]

Structure (SMILES): CN(C)CCC=C1c2ccccc2CCc2ccccc21 [Compound 92, Amitriptyline hydrochloride]
IC50 (AaDOP2 [5]): 0.014 ± 0.0034 µM
LC50 ([4]; Aedes aegypti, 24 h): 78 µM
LC90 ([4]; dose-response 25-400 µM, 24 hr): 185 µM
average mortality [4]: 93%
Compound effect (percent receptor signaling in presence of test compound, relative lux units relative to the SCH23390 control) (AaDOP2 [7]): 10
inhibition at 10 µM (AaDOP2 [7]): 90%
IC50 [8]: 0.47 ± 0.049 µM
Relative fold selectivity for AaDOP2 vs. hD1 (AaDOP2 [9]; listed as Amitriptyline): 36 fold
Relative fold selectivity for AaDOP2 vs. hD1 (AaDOP2 [9]; listed as amitriptyline): more than 30 fold

Structure (SMILES): CSc1ccc2c(c1)C(N1CCN(C)CC1)Cc1ccccc1S2.O=C(O)/C=C\C(=O)O (stereo not drawn) [Methiothepin, methiothepin maleate]
IC50 ([8]; read-out: IC50 value (at 100 nM dopamine for hD1), 100 nM dopamine, cAMP accumulation): 0.08 ± 0.011 µM
Relative fold selectivity for AaDOP2 vs. hD1 (AaDOP2 [9]): 5.7 fold
IC50 (AaDOP2 [9]; read-out: IC50 value (at 3 µM dopamine for AaDOP2), 3 µM dopamine, cAMP accumulation): 0.014 ± 0.0051 µM

IC50 (AaDOP2 [5]): ≥ 10 µM
Compound effect (percent receptor signaling in presence of test compound, relative lux units relative to the SCH23390 control) (AaDOP2 [7]): 5
inhibition at 10 µM (AaDOP2 [7]): 95%
Structure (SMILES): O=C(Nc1ccc([N+](=O)[O-])cc1Cl)c1cc(Cl)ccc1O [Compound 847, Niclosamide, reference compound]

Structure (SMILES): NCCc1c[nH]c2ccc(O)cc12 [Compound 613, Serotonin hydrochloride]
EC50 (AaDOP2 [10]): ≥ 10 µM
Compound effect (percent receptor signaling in presence of test compound, relative lux units relative to the SCH23390 control) (AaDOP2 [7]): 110
EC50 (AaDOP1 [3]): ≥ 10 µM

IC50 (AaDOP2 [5]): ≥ 10 µM
Compound effect (percent receptor signaling in presence of test compound, relative lux units relative to the SCH23390 control) (AaDOP2 [7]): 2
inhibition at 10 µM (AaDOP2 [7]): 98%
Structure (SMILES): Oc1cc(O)cc(/C=C/c2ccc(O)c(O)c2)c1 [Compound 916, Piceatannol, reference compound]

IC50 (AaDOP2 [5]): 0.02 ± 0.0054 µM
inhibition at 10 µM (AaDOP2 [7]): 88%
Structure (SMILES): OCCN1CCN(CC/C=C2/c3ccccc3Sc3ccc(C(F)(F)F)cc32)CC1 [Compound 541, cis-(Z)-Flupenthixol dihydrochloride, reference compound]
